From patent publication US11168093B2, “Thienopyridine inhibitors of RIPK2” (Celgene Corporation, priority 2018, dated 2021)

Target: RIPK2 enzyme (Homo sapiens (Human), UniProt O43353)
Assay: RIPK2 inhibition assay, TR-FRET LanthaScreen Tracer 199 screening assay
Assay type: binding
Conditions: 5 nM RIPK2 enzyme, Tracer 199 at 50 nM, Eu-anti-His Antibody at 2 nM, 1 hour incubation
How it was run: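 TR-FRET binding displacement: 5 nM RIPK2, 50 nM Tracer 199, 2 nM Eu-anti-His antibody in 1× kinase reaction buffer, 1 h, read at room temperature (340 ex/665 and 615 em). No-enzyme background subtracted; percent inhibition versus uninhibited controls, IC50 from unconstrained variable-slope fit.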

Chain of RIPK2 enzyme (O43353 whole entry): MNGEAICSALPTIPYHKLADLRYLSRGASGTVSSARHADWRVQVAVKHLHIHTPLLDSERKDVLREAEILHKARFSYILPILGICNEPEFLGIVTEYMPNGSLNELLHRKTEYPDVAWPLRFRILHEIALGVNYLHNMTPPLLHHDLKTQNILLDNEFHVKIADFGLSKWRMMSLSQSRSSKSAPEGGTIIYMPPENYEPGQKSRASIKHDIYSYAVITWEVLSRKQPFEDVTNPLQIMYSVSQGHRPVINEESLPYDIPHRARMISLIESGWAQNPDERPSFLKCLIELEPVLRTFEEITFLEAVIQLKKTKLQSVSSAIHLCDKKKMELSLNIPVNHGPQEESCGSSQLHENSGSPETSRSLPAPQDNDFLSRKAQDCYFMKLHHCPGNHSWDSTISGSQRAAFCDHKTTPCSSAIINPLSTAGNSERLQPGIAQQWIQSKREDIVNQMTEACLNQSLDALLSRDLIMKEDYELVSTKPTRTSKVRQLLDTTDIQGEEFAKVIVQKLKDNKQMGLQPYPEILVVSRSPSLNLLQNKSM

Compound	IC50 [µM]
CC1NCCCCC1c1cc2c(Nc3c(F)cc4scnc4c3F)ccnc2s1 (centres unmarked) [Example 118b, 4,6-difluoro-N-(2-(2-methylazepan-3-yl)thieno[2,3-b]pyridin-4-yl)benzo[d]thiazol-5-amine]	≤ 0.01
CC1NCCCC1c1cc2c(Nc3ccc4scnc4c3)c(F)cnc2s1 (centres unmarked) [Example 119, N-(5-fluoro-2-(2-methylpiperidin-3-yl)thieno[2,3-b]pyridin-4-yl)benzo[d]thiazol-5-amine]	0.02 to 0.05
CC1C(c2cc3c(Nc4ccc5scnc5c4)c(F)cnc3s2)CCCN1C (centres unmarked) [Example 120, N-(2-(1,2-dimethylpiperidin-3-yl)-5-fluorothieno[2,3-b]pyridin-4-yl)benzo[d]-thiazol-5-amine]	≤ 0.01
CCN1CCCC(c2cc3c(Nc4ccc5scnc5c4)c(F)cnc3s2)C1C (centres unmarked) [Example 121, N-(2-(1-ethyl-2-methylpiperidin-3-yl)-5-fluorothieno[2,3-b]pyridin-4-yl)benzo[d]thiazol-5-amine]	≤ 0.01
CC1NCCCC1c1cc2c(Nc3cc4ncsc4cc3F)c(F)cnc2s1 (centres unmarked) [Example 122a, 6-fluoro-N-(5-fluoro-2-(2-methylpiperidin-3-yl)thieno[2,3-b]pyridin-4-yl) benzo[d]thiazol-5-amine]	≥ 0.05
CC1C(c2cc3c(Nc4cc5ncsc5cc4F)c(F)cnc3s2)CCCN1C (centres unmarked) [Example 123a, N-(2-(1,2-dimethylpiperidin-3-yl)-5-fluorothieno[2,3-b]pyridin-4-yl)-6-fluorobenzo[d]thiazol-5-amine]	≥ 0.05
CC1NCCCC1c1cc2c(Nc3c(F)cc4scnc4c3F)c(F)cnc2s1 (centres unmarked) [Example 126a, 4,6-difluoro-N-(5-fluoro-2-(2-methylpiperidin-3-yl)thieno[2,3-b]pyridin-4-yl)benzo[d]thiazol-5-amine]	≤ 0.01
CC1C(c2cc3c(Nc4c(F)cc5scnc5c4F)c(F)cnc3s2)CCCN1C (centres unmarked) [Example 127b]	≤ 0.01
